Test results reported in the supplement of paper PMC13380429.

Tests used:
Settings in all cases: 72 h
Calu-3 [1] = experiment: cell viability relative to DMSO; higher = less toxic
HepG2 [2] = experiment: as above
U2OS [3] = experiment: as above
Vero E6 [4] = experiment: as above
Calu-3 [5] = experiment: relative viability EC50 (midpoint between 100% and the lowest measured viability); higher = less toxic
HepG2 [6] = experiment: as above
U2OS [7] = experiment: as above
Vero E6 [8] = experiment: as above
Calu-3 [9] = experiment: drug sensitivity score (DSS) for viability; higher = more toxic; extreme values may be limits of the assay
HepG2 [10] = experiment: as above
U2OS [11] = experiment: as above
Vero E6 [12] = experiment: as above
Caco-2 [13] = experiment: cell viability relative to DMSO; higher = less toxic
Caco-2 [14] = experiment: drug sensitivity score (DSS) for viability; higher = more toxic; extreme values may be limits of the assay
Caco-2 [15] = experiment: relative viability EC50 (midpoint between 100% and the lowest measured viability); higher = less toxic

| SMILES | cell viability (Calu-3 [1]; 1 nM) [%] | cell viability (Calu-3 [1]; 10 nM) [%] | cell viability (Calu-3 [1]; 100 nM) [%] | cell viability (Calu-3 [1]; 1000 nM) [%] | cell viability (Calu-3 [1]; 10000 nM) [%] | cell viability (HepG2 [2]; 1 nM) [%] | cell viability (HepG2 [2]; 10 nM) [%] | cell viability (HepG2 [2]; 100 nM) [%] | cell viability (HepG2 [2]; 1000 nM) [%] | cell viability (HepG2 [2]; 10000 nM) [%] | cell viability (U2OS [3]; 1 nM) [%] | cell viability (U2OS [3]; 10 nM) [%] | cell viability (U2OS [3]; 100 nM) [%] | cell viability (U2OS [3]; 1000 nM) [%] | cell viability (U2OS [3]; 10000 nM) [%] | cell viability (Vero E6 [4]; 1 nM) [%] | cell viability (Vero E6 [4]; 10 nM) [%] | cell viability (Vero E6 [4]; 100 nM) [%] | cell viability (Vero E6 [4]; 1000 nM) [%] | cell viability (Vero E6 [4]; 10000 nM) [%] | relative viability EC50 (Calu-3 [5]) [µM] | relative viability EC50 (HepG2 [6]) [µM] | relative viability EC50 (U2OS [7]) [µM] | relative viability EC50 (Vero E6 [8]) [µM] | drug sensitivity score (Calu-3 [9]) | drug sensitivity score (HepG2 [10]) | drug sensitivity score (U2OS [11]) | drug sensitivity score (Vero E6 [12]) | cell viability (Caco-2 [13]; 1 nM) [%] | cell viability (Caco-2 [13]; 10 nM) [%] | cell viability (Caco-2 [13]; 100 nM) [%] | cell viability (Caco-2 [13]; 1000 nM) [%] | cell viability (Caco-2 [13]; 10000 nM) [%] | drug sensitivity score (Caco-2 [14]) | relative viability EC50 (Caco-2 [15]) [µM] |
| --- | --- | --- | --- | --- | --- | --- | --- | --- | --- | --- | --- | --- | --- | --- | --- | --- | --- | --- | --- | --- | --- | --- | --- | --- | --- | --- | --- | --- | --- | --- | --- | --- | --- | --- | --- |
| COc1ccc(CN(CCN(C)C)c2ccccn2)cc1 [mepyramine] | 101 | 113 | 112 | 106 | 93 | 99.8 | 95.7 | 91 | 102 | 92.8 | 98 | 99.8 | 103 | 101 | 95.9 | 95.7 | 93.1 | 95.1 | 98.5 | 102 | > 10 | > 10 | > 10 | > 10 | 0 | 0 | 0 | 0 | – | – | – | – | – | – | – |
| CN(Cc1cnc2nc(N)nc(N)c2n1)c1ccc(C(=O)N[C@@H](CCC(=O)O)C(=O)O)cc1 [methotrexate] | 104 | 94.3 | 93.9 | 95.8 | 96.5 | 94.3 | 103 | 105 | 21.8 | 18.6 | 103 | 98.2 | 98 | 92.1 | 97.2 | 103 | 99.1 | 96.1 | 14.7 | 14.3 | > 10 | 0.379 | > 10 | 0.284 | 0 | 14 | 0 | 16.1 | 98.3 | 99.6 | 97.6 | 67.1 | 66 | 6.1 | – |
| Nc1c2ccccc2nc2ccccc12 [9-aminoacridine] | 94.4 | 92.4 | 105 | 110 | 64.6 | 93.5 | 96.5 | 99.8 | 88.1 | 5.5 | 94.6 | 98 | 95 | 99.8 | 34.9 | 106 | 104 | 108 | 86.5 | 20.3 | – | 2.14 | 3.14 | 1.89 | 1.2 | 7.2 | 3.6 | 6.6 | 103 | 115 | 96.2 | 134 | 60.5 | 1.1 | – |
| CN(C)CCN(Cc1ccccc1)c1ccccn1 [tripelennamine] | – | – | – | – | – | 108 | 111 | 101 | 89.7 | 78.9 | – | – | – | – | – | 110 | 110 | 105 | 102 | 97.1 | – | > 10 | – | > 10 | – | 1.8 | – | 0 | – | – | – | – | – | – | – |
| O=C(N[C@H](Cc1ccccc1)C(=O)O)c1sc2cc(F)ccc2c1Cl [CU-CPT-4a] | – | – | – | – | – | 107 | 106 | 92.7 | 90.1 | 100 | 97.2 | 97.1 | 94.4 | 98.2 | 96.7 | 107 | 103 | 102 | 99.1 | 104 | – | > 10 | > 10 | > 10 | – | 0 | 0 | 0 | 99.3 | 102 | 91.1 | 93.5 | 102 | 0 | > 10 |
| Cc1ccc(CCCO)c(NCc2ccc3nc(NCCCN4CCOCC4)n(Cc4nc(C)ccc4O)c3c2)c1 | 115 | 96.4 | 104 | 93.6 | 74.8 | 89.5 | 100 | 103 | 109 | 89.1 | 98.1 | 97.1 | 97.6 | 96.5 | 95.1 | 99.6 | 92.7 | 97.7 | 102 | 102 | – | > 10 | > 10 | > 10 | 1.9 | 0 | 0 | 0 | 101 | 97.7 | 97.6 | 101 | 90 | 0 | > 10 |
| O=C(NO)C1(CS(=O)(=O)c2ccc(Oc3ccc(Cl)cc3)cc2)CCOCC1 [CTS-1027] | 95 | 101 | 93.1 | 104 | 98.2 | 97.7 | 88.7 | 104 | 83.5 | 96.3 | 99.7 | 105 | 100 | 106 | 88.1 | 101 | 104 | 99.4 | 95 | 94.5 | > 10 | > 10 | > 10 | > 10 | 0 | 0 | 0 | 0 | 104 | 109 | 105 | 98.8 | 74.3 | 1.2 | – |
| O=C(O[C@H]1C[N+]2(CCCOc3ccccc3)CCC1CC2)C(O)(c1cccs1)c1cccs1 [aclidinium] | – | – | – | – | – | 93.5 | 98.9 | 91.8 | 101 | 92.9 | 98.4 | 95.9 | 97.1 | 97.2 | 99.1 | 103 | 95.5 | 101 | 96.6 | 98.7 | – | > 10 | > 10 | > 10 | – | 0 | 0 | 0 | 105 | 87.8 | 99.6 | 94.3 | 104 | 0 | > 10 |
